From ChEMBL document CHEMBL1131315, “Synthesis and anticonvulsant activity of 2(3H)-benzoxazolone and 2(3H)-benzothiazolone derivatives” (J Med Chem, 1998)
Active and inactive are the calls of the source. No cut-off for these calls is given here.

What was measured:
[1] = tested on: Mus musculus; assay: Time of peak effect in mice following i.p. administration.; format: functional
[2] = tested on: Mus musculus; assay: The compound was tested for anticonvulsant activity in Maximal electroshock seizure test for 30 min in mice(ip); active at 30 mg/kg; format: functional, organism-based; design: dose 30 mg/kg
[3] = tested on: Mus musculus; assay: The compound was tested for anticonvulsant activity in Maximal electroshock seizure test (MES) for 4 hr in mice(ip); no activity or toxicity at 300 mg/kg; format: functional, organism-based; design: dose 300 mg/kg
[4] = tested on: Mus musculus; assay: The compound was tested to inhibit 50% of induced maximal electroshock seizure in mice on ip administration.; format: functional
[5] = tested on: Mus musculus; assay: Inhibition of s.c. pentylenetetrazole induced seizure in mice following i.p. administration.; format: functional
[6] = tested on: Mus musculus; assay: Anticonvulsant activity in subcutaneous pentylenetetrazole seizure test for 30 min in mice; No activity/toxicity at 300 mg/kg.; format: functional, organism-based; design: dose 300 mg/kg
[7] = tested on: Mus musculus; assay: The anticonvulsant activity in subcutaneous pentylenetetrazole seizure test (sc Met) for 4 hr in mice; no activity or no toxicity at 300 mg/kg; format: functional, organism-based; design: dose 300 mg/kg
[8] = biological target: Sigma 2 receptor; assay: Affinity on sigma 2 receptor using [3H]- DTG as radioligand
[9] = biological target: Sigma non-opioid intracellular receptor 1 (Homo sapiens) (UniProt Q99720); assay: Ratio between the Ki(nM)values of sigma-2 and sigma-1; format: functional
Chain of Sigma non-opioid intracellular receptor 1 (Homo sapiens) (Q99720 whole entry): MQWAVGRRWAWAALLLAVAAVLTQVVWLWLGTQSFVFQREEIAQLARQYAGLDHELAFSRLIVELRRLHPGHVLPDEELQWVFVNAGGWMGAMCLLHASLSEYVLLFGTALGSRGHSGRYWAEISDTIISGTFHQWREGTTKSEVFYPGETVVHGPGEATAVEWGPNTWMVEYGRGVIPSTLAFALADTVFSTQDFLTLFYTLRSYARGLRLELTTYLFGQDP

[10] = The compound was tested for neurologic toxicity (rotarod) test for 30 min in mice; active at 100 mg/kg; format: organism-based; design: dose 100 mg/kg; conditions: mouse, in vivo, 0.5 h
[11] = (§1) The compound was determined for the dose (mg/kg) by rotarod test at the time of peak neurotoxic effect in mice on ip administration.; format: ADME, organism-based; conditions: mouse, in vivo
[12] = The compound was tested for time of peak effect (TPE) in hours for its toxicity in mice on ip administration.; format: organism-based; conditions: mouse, in vivo
[13] = The compound was tested for neurologic toxicity (rotarod) test for 4 hours in mice; no activity or no toxicity at 300 mg/kg; format: organism-based; design: dose 300 mg/kg; conditions: mouse, in vivo
[14] = tested on: Mus musculus; assay: Anticonvulsant activity in Maximal electroshock seizure test at 100 mg/kg i.p. in mice.; format: functional, organism-based; design: dose 100 mg/kg
[15] = tested on: Mus musculus; assay: The compound was tested for anticonvulsant activity in Maximal electroshock seizure test (MES) for 4 hr in mice(ip); active at 100 mg/kg; format: functional, organism-based; design: dose 100 mg/kg
[16] = tested on: Mus musculus; assay: The compound was tested for anticonvulsant activity in subcutaneous pentylenetetrazole seizure test (sc Met) for 30 min in mice; active at 300 mg/kg; format: functional, organism-based; design: dose 300 mg/kg
[17] = tested on: Mus musculus; assay: The compound was tested for anticonvulsant activity in subcutaneous pentylenetetrazole seizure test (sc Met) for 4 hr in mice; active at 300 mg/kg; format: functional, organism-based; design: dose 300 mg/kg
[18] = The compound was tested for neurologic toxicity (rotarod) test for 4 hours in mice; active at 300 mg/kg; format: organism-based; design: dose 300 mg/kg; conditions: mouse, in vivo
[19] = tested on: Mus musculus; assay: The compound was tested for anticonvulsant activity in Maximal electroshock seizure test (MES) for 4 hr in mice(ip); active at 300 mg/kg; format: functional, organism-based; design: dose 300 mg/kg
[20] = tested on: Mus musculus; assay: as §1; format: functional
[21] = The compound was tested for neurologic toxicity (rotarod) test for 30 min in mice; active at 300 mg/kg; format: organism-based; design: dose 300 mg/kg; conditions: mouse, in vivo, 0.5 h
[22] = tested on: Mus musculus; assay: The compound was tested for anticonvulsant activity in subcutaneous pentylenetetrazole seizure test (sc Met) for 30 min in mice; active at 100 mg/kg; format: functional, organism-based; design: dose 100 mg/kg
[23] = The compound was tested for neurologic toxicity (rotarod) test for 30 min in mice; no activity or no toxicity at 300 mg/kg; format: organism-based; design: dose 300 mg/kg; conditions: mouse, in vivo, 0.5 h

Structure (SMILES) | Activity [1] [h] | MES [3] | ED50 [4] [mg/kg] | ED50 [5] [mg/kg] | scMet [6] | scMet [7] | Rotarod toxicity [10] | Toxicity [12] [h] | Rotarod toxicity [13] | MES [14] | further results
CCCCC(=O)c1ccc2c(c1)sc(=O)n2CCN(C)C | 0.25 | active at 30 mg/kg | 27.3 | > 70 | No activity or no toxicity at 300 mg/kg | No activity or no toxicity at 300 mg/kg | active at 100 mg/kg | 0.25 | active at 100 mg/kg |  | MES [2]: active at 30 mg/kg; Ki [8]: 4.61 µM; Ratio [9]: 7; TD50 [11]: 61.5 mg/kg
CCCc1ccc2nc(O)sc2c1 |  |  |  |  |  |  | active at 100 mg/kg |  |  | active at 100 mg/kg | MES [15]: active at 100 mg/kg; scMet [16]: active at 300 mg/kg; scMet [17]: active at 300 mg/kg; Rotarod toxicity [18]: active at 100 mg/kg
CCCCC(=O)c1ccc2c(c1)oc(=O)n2CCCN1CCCCC1 |  |  |  |  | No activity or no toxicity at 300 mg/kg | No activity or no toxicity at 300 mg/kg | active at 100 mg/kg |  | active at 100 mg/kg | active at 300 mg/kg | MES [19]: active at 300 mg/kg
CCC(=O)c1ccc2c(c1)sc(=O)n2CCN(C)C | 0.25 |  | 21.8 | > 130 | No activity or no toxicity at 300 mg/kg | No activity or no toxicity at 300 mg/kg |  | 0.25 |  |  | MES [2]: active at 30 mg/kg; MES [19]: active at 30 mg/kg; TD50 [20]: 84.5 mg/kg; Rotarod toxicity [21]: active at 300 mg/kg; Rotarod toxicity [18]: active at 300 mg/kg
CCC(=O)c1ccc2c(c1)sc(=O)n2CCN1CCOCC1 | 0.25 | No activity or toxicity at 300 mg/kg | 62.1 | > 300 |  | active at 300 mg/kg | active at 100 mg/kg | 0.25 | active at 100 mg/kg | No activity or toxicity at 300 mg/kg | TD50 [20]: 239 mg/kg; scMet [16]: active at 300 mg/kg
CCC(=O)c1ccc2c(c1)oc(=O)n2C |  | No activity or toxicity at 300 mg/kg |  |  |  | active at 100 mg/kg | active at 100 mg/kg |  | active at 100 mg/kg | No activity or toxicity at 300 mg/kg | scMet [22]: active at 100 mg/kg
O=c1[nH]c2ccccc2o1 [BENZOXAZOLINONE] |  | No activity or toxicity at 300 mg/kg |  |  | No activity or no toxicity at 300 mg/kg | No activity or no toxicity at 300 mg/kg |  |  | active at 300 mg/kg | No activity or toxicity at 300 mg/kg | Rotarod toxicity [21]: active at 300 mg/kg
O=C(c1ccccc1)c1ccc2nc(O)oc2c1 |  | No activity or toxicity at 300 mg/kg |  |  | No activity or no toxicity at 300 mg/kg | No activity or no toxicity at 300 mg/kg |  |  | No activity or no toxicity at 300 mg/kg | No activity or toxicity at 300 mg/kg | Rotarod toxicity [23]: No activity or no toxicity at 300 mg/kg
CCC(=O)c1ccc2c(c1)sc(=O)n2CCN1CCCC1 | 0.25 | active at 30 mg/kg | 13.9 | > 80 | No activity or no toxicity at 300 mg/kg | No activity or no toxicity at 300 mg/kg | active at 100 mg/kg | 0.25 | active at 100 mg/kg |  | MES [2]: active at 30 mg/kg; Ki [8]: 0.919 µM; Ratio [9]: 1.6; TD50 [11]: 48.4 mg/kg
Cn1c(=O)oc2cc(C(=O)c3ccccc3)ccc21 |  | No activity or toxicity at 300 mg/kg |  |  |  | active at 300 mg/kg |  |  | No activity or no toxicity at 300 mg/kg | No activity or toxicity at 300 mg/kg | scMet [16]: active at 300 mg/kg; Rotarod toxicity [23]: No activity or no toxicity at 300 mg/kg
CCCCC(=O)c1ccc2c(c1)oc(=O)n2CCN1CCCCC1 |  | No activity or toxicity at 300 mg/kg |  |  | No activity or no toxicity at 300 mg/kg | No activity or no toxicity at 300 mg/kg | active at 100 mg/kg |  | active at 100 mg/kg | No activity or toxicity at 300 mg/kg | 
